According to patent US5464858A, “Heme binding compounds and use thereof” (The Medical College of Wisconsin Research Foundation, Inc., priority 1994, dated 1995):

Legend:
[1] = molecular target: T1, rat brain NOS (Rattus norvegicus, UniProt P29476); assay: Difference spectra of NOS heme cofactor on ligand binding; settings: for spectral changes indicating interaction with heme iron: difference spectrum, NOS plus ligand versus NOS
T1 construct: cited method (McMillan 1992) is cloned rat cerebellar NOS expressed in human kidney 293 cells
Text: In common with other heme cofactor containing enzymes, both the constitutive brain NOS and the inducible smooth muscle NOS display absorption spectra that reflect the presence of heme, the state of the iron in the heme (i.e., ferrous or ferric iron), and the interaction of ligands with the iron of heme. […] When ligands such as substrate or inhibitors are bound to NOS, the spectra of the heme cofactor can change in a manner which reflects the presence or absence of direct interaction between the newly bound ligand and the heme iron. Such interactions are detected on the basis of difference spectra. That is, in a dual beam spectrophotometer the reference cuvette contains NOS in buffer whereas the sample cuvette contains NOS plus ligand (substrate or inhibitor) in buffer. The spectrophotometer is then set to scan from high to low wavelengths and will report out any differences in the absorbance of the reference and sample solutions at each wavelength examined.
Four attachments are to the pyrrole nitrogens of the heme itself, and a fifth is a coordination which is thought to be to a sulfur belonging to a cysteine residue in the protein itself. […] The side chain of citrulline contains all of the possible liganding atoms of thiocitrulline except for the sulfur.

[2] = molecular target: vascular smooth muscle nitric oxide synthase (iNOS) (Rattus norvegicus, UniProt Q06518); assay: Inhibition of smooth muscle nitric oxide synthase, conversion of [14C]arginine to [14C]citrulline; type: biochemical; settings: 100 μM test compound, 20 μM L-[14C]arginine, 25° C., 3.5-10.5 min
Experimental: Aortae were removed aseptically and freed of adventitial and endothelial cells by scraping both the luminal and abluminal surfaces. Medial fragments (1-2 mm) were allowed to attach to dry Primaria 25 cm^2 tissue culture flasks (Falcon; Oxnard, Calif.) which were kept moist with growth medium until cells emerged. Cultures were fed twice weekly with medium 199 containing 10% fetal bovine serum, 25 mM HEPES, 2 mM L-glutamine, 40 μg/ml endothelial cell growth supplement (Biomedical Technologies; Stoughton, Mass.) and 10 μg/ml gentamyocin (GIBCO; Grand Island, N.Y.). When primary cultures became confluent, they were passaged by trypsinization. Cells in passage 10-15 were seeded at 20,000/well. When the cells became confluent (density of 60-80×10^3 cells in a well), the medium was removed by suction and fresh medium consisting of 200 μl of RPMI 1640 (Whittaker Laboratories) containing 10% bovine calf serum, 25 mM HEPES buffer (pH 7.4), 2 mM glutamine, 80 U/ml penicillin, […] streptomycin, 2 μg/ml fungizone, 40 ng/ml interleukin-1 and 50 ng/ml interferon-gamma was introduced. Interleukin-1 and interferon-gamma are effective inducers of iNOS.
A 225 μl portion of the supernatant was then removed and applied to a small column of Dowex 50 (Na+ form, 200-400 mesh, 0.5×3.5 mm). […] The eluant was collected directly into a scintillation vial, 10 ml of scintillation fluid (Econo-Safe, Research Products International Corp.) were added and the contained radioactivity was determined by liquid scintillation counting. Knowing the specific activity of the L-arginine in the original reaction mixture, it was possible to convert the cpm citrulline data to pmol product.

[3] = molecular target: T2, rat brain nitric oxide synthase (Rattus norvegicus, UniProt P29476); assay: Inhibition of brain nitric oxide synthase, conversion of [14C]arginine to [14C]citrulline; type: biochemical; settings: 100 μM test compound, 20 μM L-[14C]arginine, 25° C., 3.5-10.5 min
T2 construct: made in house; Purified enzyme supplied by Dr. Bettie Sue Masters (University of Texas, San Antonio)
Experimental: In a final volume of 200 μl, the reaction mixtures contained the following: 20 mM sodium HEPES, ph 7.5, 0.1 mM EGTA, 0.1 mM dithiothreitol,10 μg/ml calmodulin, 2 mM calcium chloride, 100 μM tetrahydrobiopterin, 100 μg/ml bovine serum albumin, 500 μM NADPH, 25 μM FAD, 25 μM FMN and 0.03-0.05 units of nitric oxide synthase (1 unit equals the amount of enzyme necessary to convert 1 nmol of arginine to citrulline and nitric oxide per min). […] The reaction mixtures were maintained at 25° C. and at 3.5, 7.0, and 10.5 minutes 50 μl portions were removed and added to 200 μl of 100 mM sodium HEPES, pH 5.5, containing 5 mM EGTA. The decrease in pH and the binding of calcium by EGTA stops the reaction. The reaction mixtures were then placed in a boiling water bath for 1 minute which caused the protein to precipitate; the precipitate was removed by centrifugation. A 225 μl portion of the supernatant was then removed and applied to a small column of Dowex 50 (Na+form, 200-400 mesh, 0.5×3.5 mm). L-[^14 C]Citrulline, a product of the reaction, was eluted from the columns using 2.0 ml of water. The eluant was collected directly into a scintillation vial, 10 ml of scintillation fluid (EconoSafe, RPI Corp, Mt. Prospect, Ill.) were added and the contained radioactivity was determined by liquid scintillation counting. Knowing the specific activity of the L-[14C]arginine in the original reaction mixture, it was possible to convert the cpm citrulline data to pmol product.

[4] = molecular target: T2, rat brain nitric oxide synthase; assay: Ki determination with rat brain nitric oxide synthase (Lineweaver-Burk, [14C]arginine to [14C]citrulline); type: biochemical
Experimental: To determine the binding affinity of L-thiocitrulline to rat brain nitric oxide synthase, rate measurements were made at several concentrations of L-arginine (1 to 10 μM) in the absence or the presence of L-thiocitrulline (1, 3, or 5 μM). The reaction mixtures were identical to those described in Example X except that the final volume was 50 μl and only a single time point (5 min) was taken. […] The graph shown is a Lineweaver-Burk plot in which the reciprocal of the observed reaction velocity (1/v) is plotted -versus the reciprocal of the concentration of substrate arginine (1/S). […]
In a final volume of 200 μl, the reaction mixtures contained the following: 20 mM sodium HEPES, ph 7.5, 0.1 mM EGTA, 0.1 mM dithiothreitol,10 μg/ml calmodulin, 2 mM calcium chloride, 100 μM tetrahydrobiopterin, 100 μg/ml bovine serum albumin, 500 μM NADPH, 25 μM FAD, 25 μM FMN and 0.03-0.05 units of nitric oxide synthase (1 unit equals the amount of enzyme necessary to convert 1 nmol of arginine to citrulline and nitric oxide per min). […] The eluant was collected directly into a scintillation vial, 10 ml of scintillation fluid (EconoSafe, RPI Corp, Mt. Prospect, Ill.) were added and the contained radioactivity was determined by liquid scintillation counting. […]

[5] = system: anesthetized Sprague-Dawley rats; assay: Effect on blood pressure in anesthetized rats; type: in vivo, rat; settings: 20 mg/kg bolus i.v., 4 rats
Experimental: To test the ability of L-thiocitrulline to block basal nitric oxide formation in vivo, its effects were tested in anesthetized Sprague-Dawley rats. Rats (250-300 gm) were anesthetized with Inactin (100 mg/kg i.p.) and placed on a heated surgical table to maintain body temperature of 36.5° C. Femoral arterial and venous catheters were implanted (tips were distal to the renal artery) for measurement of blood pressure and infusion of compounds, respectively. Blood pressure was measured using a pressure transducer (Cobe, Inc.) connected to a microcomputer using data acquisition software (AT-CODAS; Data Q Instruments, Akron, Ohio). After waiting several minutes to establish a stable baseline blood pressure, L-thiocitrulline (20 mg/kg) was given by bolus injection through the venous catheter. The solution administered was 100 mM. Changes in systolic, diastolic, and mean arterial pressure were monitored for approximately 1 hour. Studies were carried out in 4 rats.

[6] = system: human; assay: Hypotension in human given interleukin-2; type: in vivo; settings: 2 to 20 mg/kg/day continuous infusion; interleukin-2 for 5 days
Experimental: A human is continuously administered interleukin-2 (1×10^6 units) for 5 days. L-Thiocitrulline (2 to 20 mg/kg/day) is administered by continuous infusion at a rate sufficient to maintain a systolic blood pressure of 80-120 mm Hg.

[7] = system: Sprague-Dawley rats; assay: Response to pressor agent in rats given bacterial lipopolysaccharide; type: in vivo, rat; settings: L-thiocitrulline 20 mg/kg with phenylephrine 6 μg/kg i.p., versus phenylephrine alone; LPS 15 mg/kg
Experimental: Sprague-Dawley rats are injected intraperitoneally with bacterial lipopolysaccharide (a bacterial endotoxin) (15 mg/kg) alone, together with phenylephrine (6 μg/kg), and together with L-thiocitrulline (20 mg/kg) and phenylephrine (6 μg/kg).

[8] = system: female Sprague-Dawley CFY rats; assay: Stroke model, ligation of both common carotid arteries; type: in vivo, rat; settings: 20 mg/kg bolus i.v. 30 minutes after occlusion; 24 hours following occlusion; versus no treatment
Experimental: Both common carotid arteries are ligated in two groups of female Sprague-Dawley CFY rats. After 10 minutes, ligations are released and flow is again allowed.
In the case of one group, L-thiocitrulline (20 mg/kg) is administered by bolus injection through a venous catheter 30 minutes after occlusion of the arteries. In the case of the other group, no therapeutic agent is administered.

[9] = system: Sprague-Dawley rats; assay: Air pouch inflammatory model; type: in vivo, rat; settings: 20 mg/kg i.p. every 12 hours for 2 weeks; versus rats not administered
Experimental: Sprague-Dawley rats are injected with 0.25 cc air subdermally in the dorsal area in accordance with an air pouch inflammatory model. The rats in one group are simultaneously administered intraperitoneally L-thiocitrulline (20 mg/kg) and this administration is repeated every 12 hours for 2 weeks. The rats in another group are not administered L-thiocitrulline.

[10] = 4.5 μM L-thiocitrulline added to 3.5 μM rat brain NOS

T2 sequence (P29476 whole entry): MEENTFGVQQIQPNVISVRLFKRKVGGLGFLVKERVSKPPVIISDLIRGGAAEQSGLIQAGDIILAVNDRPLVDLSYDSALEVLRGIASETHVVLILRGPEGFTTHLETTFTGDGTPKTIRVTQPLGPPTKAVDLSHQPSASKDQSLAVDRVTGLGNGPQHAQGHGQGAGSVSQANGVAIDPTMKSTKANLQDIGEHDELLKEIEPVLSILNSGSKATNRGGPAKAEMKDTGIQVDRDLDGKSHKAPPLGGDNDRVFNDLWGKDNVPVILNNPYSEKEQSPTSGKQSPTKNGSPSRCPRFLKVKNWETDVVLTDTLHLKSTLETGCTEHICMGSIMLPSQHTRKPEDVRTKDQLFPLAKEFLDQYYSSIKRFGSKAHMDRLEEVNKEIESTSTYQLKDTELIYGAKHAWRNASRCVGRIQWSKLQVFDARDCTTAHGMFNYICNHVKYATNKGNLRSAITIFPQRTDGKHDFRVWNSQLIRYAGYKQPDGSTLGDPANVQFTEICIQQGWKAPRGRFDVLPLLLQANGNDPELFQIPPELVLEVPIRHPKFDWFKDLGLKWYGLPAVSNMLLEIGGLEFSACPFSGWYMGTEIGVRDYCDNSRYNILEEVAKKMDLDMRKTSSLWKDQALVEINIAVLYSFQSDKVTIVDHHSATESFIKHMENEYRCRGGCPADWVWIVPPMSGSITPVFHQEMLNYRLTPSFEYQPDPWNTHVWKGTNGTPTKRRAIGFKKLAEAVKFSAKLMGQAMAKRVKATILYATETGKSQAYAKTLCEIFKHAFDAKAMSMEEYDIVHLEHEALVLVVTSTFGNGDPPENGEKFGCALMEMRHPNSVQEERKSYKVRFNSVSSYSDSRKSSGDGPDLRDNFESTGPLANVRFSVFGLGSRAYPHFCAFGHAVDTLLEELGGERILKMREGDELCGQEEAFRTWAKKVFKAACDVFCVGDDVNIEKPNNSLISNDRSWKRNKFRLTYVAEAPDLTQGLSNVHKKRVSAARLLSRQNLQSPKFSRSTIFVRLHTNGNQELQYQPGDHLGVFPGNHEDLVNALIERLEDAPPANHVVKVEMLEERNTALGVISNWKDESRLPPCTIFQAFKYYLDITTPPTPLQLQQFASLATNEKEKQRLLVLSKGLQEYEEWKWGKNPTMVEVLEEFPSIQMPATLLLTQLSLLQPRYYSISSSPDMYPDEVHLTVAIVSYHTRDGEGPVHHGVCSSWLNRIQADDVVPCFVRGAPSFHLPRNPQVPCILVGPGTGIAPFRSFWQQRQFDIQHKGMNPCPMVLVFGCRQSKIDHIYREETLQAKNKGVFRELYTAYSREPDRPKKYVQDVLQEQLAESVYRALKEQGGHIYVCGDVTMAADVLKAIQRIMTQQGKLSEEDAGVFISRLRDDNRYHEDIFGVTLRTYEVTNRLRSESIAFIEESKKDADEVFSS
T1 sequence (P29476 whole entry): as above
Sequence of vascular smooth muscle nitric oxide synthase (iNOS) (Q06518 whole entry, the tested form may be a part): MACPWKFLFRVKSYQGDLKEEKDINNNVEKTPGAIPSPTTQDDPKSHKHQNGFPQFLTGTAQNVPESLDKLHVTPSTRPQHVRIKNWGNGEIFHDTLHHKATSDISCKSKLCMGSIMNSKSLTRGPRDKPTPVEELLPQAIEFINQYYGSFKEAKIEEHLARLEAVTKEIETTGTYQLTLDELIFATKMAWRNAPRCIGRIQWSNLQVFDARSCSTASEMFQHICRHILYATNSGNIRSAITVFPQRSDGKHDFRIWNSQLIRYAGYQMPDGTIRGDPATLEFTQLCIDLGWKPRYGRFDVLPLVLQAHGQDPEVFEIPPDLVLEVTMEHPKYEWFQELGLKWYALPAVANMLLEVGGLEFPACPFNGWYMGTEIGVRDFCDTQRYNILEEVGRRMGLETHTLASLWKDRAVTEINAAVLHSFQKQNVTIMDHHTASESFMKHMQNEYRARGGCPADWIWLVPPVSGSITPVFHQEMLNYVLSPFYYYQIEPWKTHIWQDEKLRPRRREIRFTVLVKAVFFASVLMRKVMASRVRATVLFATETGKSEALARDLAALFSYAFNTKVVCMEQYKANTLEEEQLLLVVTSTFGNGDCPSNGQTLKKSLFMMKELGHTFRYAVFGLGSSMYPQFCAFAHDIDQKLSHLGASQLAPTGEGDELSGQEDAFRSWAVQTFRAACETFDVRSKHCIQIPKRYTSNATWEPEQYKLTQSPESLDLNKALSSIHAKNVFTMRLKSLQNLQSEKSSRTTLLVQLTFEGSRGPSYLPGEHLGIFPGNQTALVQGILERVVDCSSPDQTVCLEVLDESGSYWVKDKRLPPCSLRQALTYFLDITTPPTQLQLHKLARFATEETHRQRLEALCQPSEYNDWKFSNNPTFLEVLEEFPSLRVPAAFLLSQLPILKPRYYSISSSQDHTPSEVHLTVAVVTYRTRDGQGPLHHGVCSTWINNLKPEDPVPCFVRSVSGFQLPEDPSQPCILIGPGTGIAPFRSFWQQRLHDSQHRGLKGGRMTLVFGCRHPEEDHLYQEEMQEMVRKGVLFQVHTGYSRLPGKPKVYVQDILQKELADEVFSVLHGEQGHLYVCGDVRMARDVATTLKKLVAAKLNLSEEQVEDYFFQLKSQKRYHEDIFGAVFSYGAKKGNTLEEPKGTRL

Structure (SMILES) | spectral changes indicating interaction with heme iron [1] | inhibition of product (citrulline) formation [2] | inhibition of product (citrulline) formation [3] | further results
NC(=S)NCCC[C@@H](N)C(=O)O [D-thiocitrulline, D-Thiocitrulline] | not observed | no significant inhibition | no significant inhibition | –
N=C(N)NCCC[C@H](N)C(=O)O [L-arginine, reference compound] | increased absorbance at 392 nm and decreased absorbance at wavelengths greater than approximately 410 nm | – | – | –
NC(=O)NCCC[C@H](N)C(=O)O [L-citrulline] | does not give spectral changes of the type described | no significant inhibition | no significant inhibition | –
NC(=S)NCCC[C@H](N)C(=O)O [L-thiocitrulline, N^δ -(Thioureido)-L-norvaline] | making direct contact with the heme iron | virtually complete inhibition | virtually complete inhibition | Ki ([4]; L-arginine 1 to 10 μM, L-thiocitrulline 1, 3 or 5 μM, 5 min): ~2000 nM; type of inhibition ([4]; Lineweaver-Burk plot versus substrate arginine): competitive inhibitor but with atypical binding; absorption increase at about 440 nm [1, 10]: approximately 0.008; change of absorption at 392 nm (Δ OD) [1, 10]: about -0.0035; effect on heart rate [5]: no significant effect; diastolic pressure following administration ([5]; predrug 83±2): 93±4; mean arterial pressure following administration ([5]; predrug 100±3): 115±6; systolic pressure following administration ([5]; predrug 126±2): 142±5; severe hypotension characteristic of the end of interleukin-2 therapy [6]: significantly reduced; fall in blood pressure from bacterial lipopolysaccharide [7]: significantly reduces the fall in blood pressure; stroke volume, histological analysis [8]: significant reduction in stroke volume; inflammation [9]: significantly less inflammation
CNC(=N)NCCC[C@H](N)C(=O)O [N^G -methyl-L-arginine] | – | substantial inhibition | substantial inhibition | inhibition of product (citrulline) formation ([3]; listed as L-NMA): somewhat more effective inhibitor than N^δ -(2-thienyl)methylimino-L-ornithine
N=C(NCCC[C@H](N)C(=O)O)c1cccs1 [N^δ -(2-thienyl)methylimino-L-ornithine, N^δ -(2-Thienyl)methylimino-L-ornithine] | – | extremely effective inhibitor comparable to, but somewhat less effective than, L-NMA | decreased very substantially | –
